How the values were obtained:
[1] = tested on: antibodies in sera from SARS patients (sera 1a, 1b, 2, 6, 37, 62, London, SARS-yellow, SARS-green); format: binding, human; design: Binding of serum 6 to linear peptides of protein X1 of SARS-CoV Urbani / Binding of serum 37 to linear peptides of protein X1 of SARS-CoV Urbani / Binding of serum 6 to looped/cyclic peptide (PEPSCAN-ELISA) / Binding of serum 37 to looped/cyclic peptide (PEPSCAN-ELISA) / Binding of serum 37 to looped/cyclic peptides of protein X1 of SARS-CoV Urbani / Binding of serum 6 to linear peptides of protein X2 / Binding of serum 37 to linear peptides of protein X2 / Binding of serum 37 to looped/cyclic peptides of protein X2 of SARS-CoV Urbani / Binding of serum 6 to linear peptides of protein M of SARS-CoV Urbani / Binding of serum 37 to linear peptides of protein M of SARS-CoV Urbani / Binding of serum 6 to looped/cyclic peptides of protein M of SARS-CoV Urbani / Binding of serum 37 to looped/cyclic peptides of protein M of SARS-CoV Urbani / Binding of serum 6 to linear peptides of protein X3 of SARS-CoV Urbani / Binding of serum 37 to linear peptides of protein X3 of SARS-CoV Urbani / Binding of serum 37 to looped/cyclic peptides of protein X3 of SARS-CoV Urbani / Binding of serum 6 to linear peptides of protein X4 of SARS-CoV Urbani / Binding of serum 37 to linear peptides of protein X4 of SARS-CoV Urbani / Binding of serum 37 to looped/cyclic peptides of protein X4 of SARS-CoV Urbani / Binding of serum 6 to linear peptides of protein X5 of SARS-CoV Urbani / Binding of serum 37 to linear peptides of protein X5 of SARS-CoV Urbani / Binding of serum 37 to looped/cyclic peptides of protein X5 of SARS-CoV Urbani / Binding of serum 6 to linear peptides of protein N of SARS-CoV Urbani / Binding of serum 37 to linear peptides of protein N of SARS-CoV Urbani / Binding of serum 6 to linear peptide (PEPSCAN-ELISA) / Binding of serum 1a to looped/cyclic peptides of protein N of SARS-CoV Urbani / Binding of serum 1b to looped/cyclic peptides of protein N of SARS-CoV Urbani / Binding of serum 2 to looped/cyclic peptides of protein N of SARS-CoV Urbani / Binding of serum 6 to looped/cyclic peptides of protein N of SARS-CoV Urbani / Binding of serum 37 to looped/cyclic peptides of protein N of SARS-CoV Urbani / Binding of serum 62 to looped/cyclic peptides of protein N of SARS-CoV Urbani / Binding of serum London to looped/cyclic peptides of protein N of SARS-CoV Urbani / Binding of serum SARS-green to looped/cyclic peptides of protein N of SARS-CoV Urbani: unit not given here
[2] = tested on: control sera (pooled serum of ten healthy LUMC hospital workers; commercial negative donor pooled serum from the Dutch bloodbank); format: binding, human; design: Binding of Control serum LUMC to linear peptides / Binding of Control serum Blood-bank to linear peptides / Binding of Control serum LUMC to looped peptides / Binding of Control Serum Blood-Bank to Looped peptides / Binding of Control serum LUMC to linear peptides of the protein M of SARS-CoV Urbani / Binding of Control serum Blood-bank to linear peptides of the protein M of SARS-CoV Urbani / Binding of Control serum LUMC to looped peptides of the protein M of SARS-CoV Urbani / Binding of Control Serum Blood-Bank to Looped peptides of the protein M of SARS-CoV Urbani: unit not given here
[3] = tested on: rabbit serum obtained by immunizing a rabbit with the SARS-CoV strain Frankfurt 1; format: binding; design: Binding of a rabbit serum to linear peptides / Binding of a rabbit serum to looped peptides / Rabbit serum linear peptides / Rabbit serum looped peptides / Binding of a rabbit serum to linear peptides of protein N of SARS-CoV Urbani (Rabbit serum linear peptides) / Binding of a rabbit serum to looped/cyclic peptides of protein N of SARS-CoV Urbani (Rabbit serum looped peptides): unit not given here
[4] = tested on: recombinant human anti-SARS-CoV antibody 03-018; format: binding; design: Binding of antibody 03-018 to linear peptides of the N protein of SARS-CoV Urbani / Binding of antibody 03-018 to looped/cyclic peptides of the N protein of SARS-CoV Urbani: unit not given here

Sequence | Binding of serum 1a to linear peptides of protein N of SARS-CoV Urbani [1] | Binding of serum 1a to looped/cyclic peptides of protein N of SARS-CoV Urbani [1] | Binding of serum 1b to linear peptides of protein N of SARS-CoV Urbani [1] | Binding of serum 1b to looped/cyclic peptides of protein N of SARS-CoV Urbani [1] | Binding of serum 2 to linear peptides of protein N of SARS-CoV Urbani [1] | Binding of serum 2 to looped/cyclic peptides of protein N of SARS-CoV Urbani [1] | Binding of serum 6 to linear peptides of protein N of SARS-CoV Urbani [1] | Binding of serum 6 to looped/cyclic peptides of protein N of SARS-CoV Urbani [1] | Binding of serum 37 to linear peptides of protein N of SARS-CoV Urbani [1] | Binding of serum 37 to looped/cyclic peptides of protein N of SARS-CoV Urbani [1] | Binding of serum 62 to linear peptides of protein N of SARS-CoV Urbani [1] | Binding of serum 62 to looped/cyclic peptides of protein N of SARS-CoV Urbani [1] | Binding of serum London to linear peptides of protein N of SARS-CoV Urbani [1] | Binding of serum London to looped/cyclic peptides of protein N of SARS-CoV Urbani [1] | Binding of serum SARS-green to linear peptides of protein N of SARS-CoV Urbani [1] | Binding of serum SARS-green to looped/cyclic peptides of protein N of SARS-CoV Urbani [1] | Binding of serum SARS-yellow to linear peptides of protein N of SARS-CoV Urbani [1] | Binding of serum SARS-yellow to looped/cyclic peptides of protein N of SARS-CoV Urbani [1] | Binding of a rabbit serum to linear peptides of protein N of SARS-CoV Urbani (Rabbit serum linear peptides) [3] | Binding of a rabbit serum to looped/cyclic peptides of protein N of SARS-CoV Urbani (Rabbit serum looped peptides) [3] | other results
ANKEGIVWVATEGAL | 0.2 | 0.4 | 0.1 | 0.3 | 0.2 | 0.3 | 0.2 | 0.2 | 0.8 | 0.6 | 0.7 | 0.5 | 0.4 | 0.3 | 0.4 | 0.4 | 0.7 | 0.6 | 0.1 | 0.3 | Binding of Control Serum Blood-Bank to Looped peptides [2]: 0.5; Binding of Control serum Blood-bank to linear peptides [2]: 0.6; Binding of Control serum LUMC to linear peptides [2]: 0.6; Binding of Control serum LUMC to looped peptides [2]: 0.6; Binding of antibody 03-018 to linear peptides of the N protein of SARS-CoV Urbani [4]: 0.1; Binding of antibody 03-018 to looped/cyclic peptides of the N protein of SARS-CoV Urbani [4]: 0.2
ASAFFGMSRIGMEVT | 0.2 | 0.3 | 0.3 | 0.2 | 0.2 | 0.3 | 0.2 | 0.1 | 0.7 | 0.5 | 0.7 | 0.4 | 0.8 | 0.3 | 0.3 | 0.3 | 0.7 | 0.6 | 0.1 | 0.5 | Control Serum Blood-Bank Looped peptides [2]: 0.5; Control serum Blood-bank linear peptides [2]: 0.7; Control serum LUMC linear peptides [2]: 0.7; Control serum LUMC looped peptides [2]: 0.4; Binding of antibody 03-018 to linear peptides of the N protein of SARS-CoV Urbani [4]: 0.1; Binding of antibody 03-018 to looped/cyclic peptides of the N protein of SARS-CoV Urbani [4]: 0.2
ASLPYGANKEGIVWV | 0.2 | 0.4 | 0.1 | 0.3 | 0.2 | 0.7 | 0.1 | 0.3 | 0.6 | 1.0 | 0.5 | 1.0 | 0.4 | 0.6 | 0.1 | 0.8 | 0.5 | 0.3 | 0.2 | 0.2 | Binding of Control Serum Blood-Bank to Looped peptides [2]: 0.9; Binding of Control serum Blood-bank to linear peptides [2]: 0.7; Binding of Control serum LUMC to linear peptides [2]: 0.6; Binding of Control serum LUMC to looped peptides [2]: 0.8; Binding of antibody 03-018 to linear peptides of the N protein of SARS-CoV Urbani [4]: 0.1; Binding of antibody 03-018 to looped/cyclic peptides of the N protein of SARS-CoV Urbani [4]: 0.3

Source: patent publication US20070128217A1 (priority 2003, published 2007)
